Assay results taken from patent US20100029654A1, “CARDIOVASCULAR COMPOSITIONS AND USE OF THE SAME FOR THE TREATMENT OF ALZHEIMER'S DISEASE” (MOUNT SINAI SCHOOL OF MEDICINE, priority 2006, published 2010).
Where a name gives a salt, the structure may show the parent alone. Read-outs that look alike come from different tables or passages of the source.

Key:
[1] = system: Aβ1-40; assay: Aβ1-40 content in conditioned medium of primary cortico-hippocampal neuron cultures from Tg2576 mice (ELISA; primary and secondary dose-response screening); format: cell-based, mouse; settings: for activity at 100 µM: Mus musculus, Neuron, 24 h, read-out: Ab1-40 (% of ctl); for activity at 100 µM / Ab1-40 (% of ctl): drug 100 μM; for reduced Aβ1-40: <85% of ctl
Procedure: (§1) Potential Aβ-lowering activity was assessed for 150 commercially available cardiovascular drugs using primary cortico-hippocampal neuron cultures derived from embryonic Tg2576 (El 6). […] All cardiovascular reagents were obtained from MicroSource Discovery Systems Inc (Gaylordsville, Conn.). […] Individual cardiovascular agents were applied directly to the culture medium (final 1% DMSO in the culture media). In control studies, parallel Tg2576 primary neuron cultures were treated with vehicle (1% DMSO) alone. The influence of drug treatments in Aβ content in the conditioned medium in treated cultures was assessed by assessing steady state levels of Aβ1-40 and Aβ1-42 in the culture media 24 hours after treatment.
(§2) Embryonic brain tissue was mechanically triturated and centrifuged. Neurons were seeded onto poly-D-lysine-coated 96-well plates at 1.0×10^5 cells per well and cultured in the serum-free chemically-defined medium Neurobasal, supplemented with 2% B27, 0.5 mM L-glutamine and 1% penicillin-streptomycin (Gibco-BRL).
(§3) For primary screening, cultured neurons were treated with 100 μM of drug in duplicates for 16 hours; all drugs were obtained in stock from MicroSource Discovery Systems Inc (Gaylordsville, Conn.). Conditioned medium was collected for Aβ detection using commercially available ELISA kits (BioSource). […] Primary neurons prepared in 96-well plates were treated with 0.1 μM, 1 μM, 10 μM, 50 μM, and 100 μM of each drug in duplicate for ˜16 hours and conditioned medium was collected for Aβ detection.

[2] = system: Aβ1-42; assay: Aβ1-42 content in conditioned medium of primary cortico-hippocampal neuron cultures from Tg2576 mice (ELISA; primary and secondary dose-response screening); format: cell-based, mouse; settings: for activity at 100 µM: Mus musculus, Neuron, 24 h, read-out: Ab1-42 (% of ctl); for activity at 100 µM / Ab1-42 (% of ctl): drug 100 μM; for reducing Aβ1-42: <85% of ctl
Procedure: as §1, §2, §3

[3] = system: primary cortico-hippocampal neuron cultures; assay: MTT in primary screening
[4] = system: primary cortico-hippocampal neuron cultures; assay: lactate dehydrogenase (LDH) activity assay in parallel neuron cultures
Procedure: For in vitro treatments drugs available from “The Spectrum Collection” in stocks of 10 mM in DMSO were applied directly to cultures to the desired concentrations (final 1% DMSO); control primary neuron cultures from Tg2576 embryos were treated with vehicle resulting in a final 1% DMSO.
Cell viability was assessed using a commercial available LDH assay kit according to the manufacture's instruction (Promega).

[5] = Primary Screening, table sorted by Aβ1-40
[6] = primary screening, Tg2576 neuron cultures, table sorted by Aβ1-42
[7] = primary screening, table sorted by Aβ1-42

SMILES | MTT (% of ctl) [3, 5] | MTT (% of ctl) [3, 7] | LDH (% of ctl) [4, 5] | LDH (% of ctl) [4, 7] | LDH at E-5M % of change ([4]; drug at E-5M) [%] | activity at 100 µM [1, 5] [%] | activity at 100 µM [1, 6] [%] | activity at 100 µM [2, 5] [%] | activity at 100 µM [2, 6] [%] | reduced Aβ1-40 ([1]; primary screening) | reducing Aβ1-42 ([2]; primary screening) | Ab1-40 (% of ctl) [1, 5] | Ab1-40 (% of ctl) [1, 6] | Ab1-42 (% of ctl) [2, 5] | Ab1-42 (% of ctl) [2, 6]
O=c1oc2c(O)c(O)cc3c(=O)oc4c(O)c(O)cc1c4c23 [Ellagic Acid] | 85.2 % of ctl | 85.2 % of ctl | 109.2 % of ctl | 109.2 % of ctl |  | 96.6 | 96.6 | 94 | 94 |  |  |  |  |  | 
CCCCNc1cc(C(=O)O)cc(S(N)(=O)=O)c1Oc1ccccc1 [Bumetanide] | 95.3 % of ctl | 95.3 % of ctl | 118.1 % of ctl | 118.1 % of ctl |  | 2.3 | 2.3 | 74.7 | 74.7 | reduced Aβ1-40 | useful in reducing Aβ1-42 |  |  |  | 
NC(N)=NC(=O)c1nc(Cl)c(N2CCCCCC2)nc1N [N,N-Hexamethyleneamiloride] | 96.1 % of ctl | 96.1 % of ctl | 117.3 % of ctl | 117.3 % of ctl |  |  |  |  |  | reduced Aβ1-40 | useful in reducing Aβ1-42 | 15.4 % of ctl | 15.4 % of ctl | 26.2 % of ctl | 26.2 % of ctl
C[C@H](CS)C(=O)N1CCC[C@H]1C(=O)O [Captopril] | 62.3 % of ctl | 62.3 % of ctl | 120.2 % of ctl | 120.2 % of ctl |  | 104 | 104 | 99.7 | 99.7 |  |  |  |  |  | 
Fc1ccc(C(c2ccc(F)cc2)N2CCN(C/C=C/c3ccccc3)CC2)cc1 [Flunarizine Hydrochloride] | 59.4 % of ctl | 59.4 % of ctl | 120.4 % of ctl | 120.4 % of ctl |  | 42.1 | 42.1 | 53.3 | 53.3 | reduced Aβ1-40 | useful in reducing Aβ1-42 |  |  |  | 
CC(=O)Nc1nnc(S(N)(=O)=O)s1 [Acetazolamide] | 78.0 % of ctl | 78.0 % of ctl | 173.5 % of ctl | 173.5 % of ctl |  | 115 | 115 | 118 | 118 |  |  |  |  |  | 
CN1C(C)(C)CCCC1(C)C [Pempidine Tartrate] | 91.3 % of ctl | 91.3 % of ctl | 108.4 % of ctl | 108.4 % of ctl |  | 80.9 | 80.9 | 78.6 | 78.6 | reduced Aβ1-40 | useful in reducing Aβ1-42 |  |  |  | 
COc1ccc2c(c1OC)C(=O)O[C@H]2[C@@H]1c2cc3c(cc2CCN1C)OCO3 [1S,9R-Beta-HYDRASTINE] | 101.1 % of ctl | 101.1 % of ctl | 114.2 % of ctl | 114.2 % of ctl |  |  |  |  |  |  |  | 114.5 % of ctl | 114.5 % of ctl | 123.6 % of ctl | 123.6 % of ctl
NS(=O)(=O)c1cc2c(cc1C(F)(F)F)NCNS2(=O)=O [Hydroflumethiazide] | 98.9 % of ctl | 98.9 % of ctl | 99.7 % of ctl | 99.7 % of ctl |  | 92.4 | 92.4 | 90.2 | 90.2 |  |  |  |  |  | 
CNCCc1ccccn1 [Betahistine Hydrochloride] | 107.1 % of ctl | 107.1 % of ctl | 107.3 % of ctl | 107.3 % of ctl |  | 110 | 110 | 98.9 | 98.9 |  |  |  |  |  | 
C1CCC(C(CC2CCCCN2)C2CCCCC2)CC1 (stereo not drawn) [Perhexiline Maleate] | 7.2 % of ctl | 7.2 % of ctl | 1065.9 % of ctl | 1065.9 % of ctl |  | 4.8 | 4.8 | 26.2 | 26.2 | reduced Aβ1-40 | useful in reducing Aβ1-42 |  |  |  | 
CC(C)(Oc1ccc(CCNC(=O)c2ccc(Cl)cc2)cc1)C(=O)O [BENZAFIBRATE] |  |  |  |  |  |  |  |  |  |  |  | 107.2 % of ctl | 107.2 % of ctl | 99.5 % of ctl | 99.5 % of ctl
CCCCc1oc2ccccc2c1C(=O)c1cc(I)c(OCCN(CC)CC)c(I)c1 [Amiodarone Hydrochloride] |  |  |  |  | 1.9 | 14.9 | 14.9 | 23.2 | 23.2 | reduced Aβ1-40 | useful in reducing Aβ1-42 |  |  |  | 
CC(C)(C)NCC(O)c1ccccc1Cl (stereo not drawn) [Tulobuterol] |  |  |  |  |  | 95.5 | 95.5 |  |  |  |  |  |  |  | 
CC[C@@H](C)C(=O)O[C@H]1[C@H](O)[C@H]2[C@@H](CN3C[C@@H](C)CC[C@H]3[C@@]2(C)O)[C@@H]2C[C@]34O[C@]5(O)[C@@H](OC(=O)[C@@](C)(O)CC)CC[C@@]3(C)[C@@H]5[C@@H](OC(C)=O)[C@@H](OC(C)=O)[C@H]4[C@@]21O [Protoveratrine A] |  |  |  |  |  |  |  |  |  |  |  | 91.7 % of ctl | 91.7 % of ctl | 104.6 % of ctl | 104.6 % of ctl

Now from value to compound, other results behind:

MTT (% of ctl) [3, 5] | MTT (% of ctl) [3, 7] | LDH (% of ctl) [4, 5] | LDH (% of ctl) [4, 7] | LDH at E-5M % of change ([4]; drug at E-5M) [%] | SMILES | activity at 100 µM [1, 5] [%] | activity at 100 µM [1, 6] [%] | activity at 100 µM [2, 5] [%] | activity at 100 µM [2, 6] [%] | reduced Aβ1-40 ([1]; primary screening) | reducing Aβ1-42 ([2]; primary screening) | Ab1-40 (% of ctl) [1, 5] | Ab1-40 (% of ctl) [1, 6] | Ab1-42 (% of ctl) [2, 5] | Ab1-42 (% of ctl) [2, 6]
102.4 % of ctl | 102.4 % of ctl | 101.8 % of ctl | 101.8 % of ctl |  | CCOC(=O)[C@H](CCc1ccccc1)N[C@@H](C)C(=O)N1Cc2ccccc2C[C@H]1C(=O)O [Quinapril Hydrochloride] | 119 | 119 | 118 | 118 |  |  |  |  |  | 
103.4 % of ctl | 103.4 % of ctl | 97.1 % of ctl | 97.1 % of ctl |  | COc1ccccc1N1CCN(CCCNc2cc(=O)n(C)c(=O)n2C)CC1 [Urapidil] | 96.4 | 96.4 | 114 | 114 |  |  |  |  |  | 
108.8 % of ctl | 108.8 % of ctl | 107.9 % of ctl | 107.9 % of ctl |  | O=C1c2ccccc2C(=O)C1c1ccccc1 [Phenindione] | 104 | 104 | 105 | 105 |  |  |  |  |  | 
99.2 % of ctl | 99.2 % of ctl | 104.4 % of ctl | 104.4 % of ctl |  | CC(C)(C)NC[C@H](O)COc1nsnc1N1CCOCC1 [Timolol Maleate] | 101 | 101 | 104 | 104 |  |  |  |  |  | 
98.9 % of ctl | 98.9 % of ctl | 171.7 % of ctl | 171.7 % of ctl |  | CC(C)NCC(O)COc1cccc2[nH]ccc12 (stereo not drawn) [Pindolol] | 99 | 99 | 46.1 | 46.1 |  | useful in reducing Aβ1-42 |  |  |  | 
94.8 % of ctl | 94.8 % of ctl | 109.3 % of ctl | 109.3 % of ctl |  | CC(C)(Sc1cc(C(C)(C)C)c(O)c(C(C)(C)C)c1)Sc1cc(C(C)(C)C)c(O)c(C(C)(C)C)c1 [Probucol] | 76.8 | 76.8 | 136 | 136 | reduced Aβ1-40 |  |  |  |  | 
96.7 % of ctl | 96.7 % of ctl | 130.8 % of ctl | 130.8 % of ctl |  | NC(N)=O [Urea] |  |  |  |  |  |  |  |  | 104.9 % of ctl | 104.9 % of ctl
